{"source": "patent US12570643B2", "about": "“3-aryloxy-3-five-membered heteroaryl propylamine compound, and crystal form and use thereof” (Shanghai Leado Pharmatech Co. Ltd., priority 2019, dated 2026)", "test_system": "formalin pain model in mice", "assay": "Formalin pain model in mice", "format": "in vivo, C57BL/6 mice", "source_text": "150 C57BL/6 mice (male, 9 weeks) were randomly divided into 15 groups with 10 mice for each group, and were used for the analgesic activity test of 3 compounds in the formalin pain model in mice: the compound I-1 group (compound I-1 prepared in Example 2, its hydrochloride was used in the experiment), the S-duloxetine group (its hydrochloride was used in the experiment) and the compound C1 group (compound C1 prepared in Comparative Example 1, its hydrochloride was used in the experiment), respectively. Before the start of the experiment, the mice were allowed to adapt to the experimental environment for 72 hours, during which there was no need to fast for food or water. The tested drugs were administrated by intraperitoneal injection, and the doses were as follows: • The compound I-1 group: blank Vehicle (blank normal saline control), 0.1 mg/kg, 0.5 mg/kg, 1 mg/kg, 5 mg/kg and 10 mg/kg; • The S-duloxetine group: blank Vehicle (blank normal saline control), 1 mg/kg, 5 mg/kg, 10 mg/kg and 20 mg/kg; • The Compound C1 group: blank Vehicle (blank normal saline control), 0.1 mg/kg, 0.5 mg/kg, 1 mg/kg, 5 mg/kg and 10 mg/kg.\nAfter the administration, the mice were placed in a transparent, ventilated plexiglass cylinder, and 1 hour later, 20 μl of 4% formalin solution was injected into the left hind foot plantar of each group of mice with a micro-injector, and foot pain response in mice were recorded in real time with a miniature camera. The length of time of licking the left foot was used as an indicator of pain response, the licking time were observed and recorded during two periods of 0-10 min (phase I) and 10-60 min (phase II) respectively, for statistical analysis, and the half effective dose (ED50) of the 3 compounds were calculated: ED50 refers to the drug dose that reduces the licking time by half compared with the blank control group. The smaller the ED50 value is, the lower the effective analgesic dose of the compound is and the better its analgesic effect is."}
{"smiles": "CNCC[C@@H](Oc1cccc2ccoc12)c1cccs1", "note": "[Compound I-1, (R)-3-(benzofuran-7-yloxy)-N-methyl-3-(thiophen-2-yl)propan-1-amine]", "values": [{"measurement": "ED50", "setting": "Mus musculus, ip, intraperitoneal, phase II (10-60 min), dose that halves licking time vs blank control, read-out: analgesic potency ED50 in phase II pain", "result": 0.26, "unit": "mg/kg"}, {"measurement": "ED50 times stronger than that of C1 compound", "setting": "phase II pain, formalin model in mice", "result": 8.5, "unit": "times"}]}
